Here are results for four compounds from US7173030B2, “Inhibitors of 11-β-hydroxy steroid dehydrogenase type 1” (Biovitrum AB, priority 2003, dated 2007).

Assay [1] concerns the target T1, human 11-β-hydroxysteroid dehydrogenase type-1 enzyme (11-β-HSD1) (Homo sapiens, UniProt P28845).
T1 construct: made in house; host or cells: Pichia pastoris
The assay is described as follows: Scintillation proximity assay: human 11-β-HSD1 enzyme assay. The class given is biochemical. Particulars: Ki calculated from IC50 (Cheng Prushoff). The text has this:
[1,2(n)-^3H]-cortisone was purchased from Amersham Pharmacia Biotech. Anti-cortisol monoclonal mouse antibody, clone 6D6.7 was obtained from Immunotech and Scintillation proximity assay (SPA) beads coated with monoclonal antimouse antibodies were from Amersham Pharmacia Biotech. NADPH, tetrasodium salt was from Calbiochem and glucose-6-phosphate (G-6-P) was supplied by Sigma. The human 11-β-hydroxysteroid dehydrogenase type-1 enzyme (11-β-HSD1) was expressed in Pichia pastoris. 18-β-glycyrrhetinic acid (GA) was obtained from Sigma. The serial dilutions of the compounds were performed on a Tecan Genesis RSP 150. […]
The multiplication of plates was done on a WallacQuadra. The amount of the product [^3H]-cortisol, bound to the beads was determined in a Packard, Top Count microplate liquid scintillation counter. […]
The plates were covered with plastic film and incubated on a shaker for 30 minutes, at room temperature, before counting. The amount of [^3H]-cortisol, bound to the beads was determined in a microplate liquid scintillation counter.
The calculation of the Ki values for the inhibitors was performed by use of Activity Base. The Ki value is calculated from IC50 and the Km value is calculated using the Cheng Prushoff equation (with reversible inhibition that follows the Michaelis-Menten equation): […] [Cheng, Y. C.; Prushoff, W. H. Biochem. Pharmacol. 1973, 22, 3099–3108]. […]

The test system of assay [2] is intraocular pressure. Particulars: normal subjects; Raus et al 2001; cited from earlier work.
Assay [3] concerns hepatic insulin sensitivity. Particulars: healthy human volunteers; Walker et al. 1995; cited from earlier work.
Assay [4] relates to Diabetic KKA^y mice. The assay is described as follows: Wound healing of surgical wounds in diabetic KKA^y mice. The class given is in vivo. The following applies: oral twice daily 200 mg/kg/day for 3.5 days. As for the experimental part:
Diabetic KKA^y mice underwent surgery during anesthesia whereby a catheter was inserted in the jugularis vein. Oral treatment twice daily (200 mg/kg/day) with the 11β-HSD1 inhibitor BVT.2733 (disclosed as Example 172A in WO 01/90090), or vehicle started 4–6 days later and continued for 3.5 days.
Advantageous effects on wound healing of the surgical wounds were observed during treatment.

By Ki is commonly meant a dissociation constant, usually derived from enzyme kinetics or from competition with a known ligand.

T1 sequence (P28845 whole entry): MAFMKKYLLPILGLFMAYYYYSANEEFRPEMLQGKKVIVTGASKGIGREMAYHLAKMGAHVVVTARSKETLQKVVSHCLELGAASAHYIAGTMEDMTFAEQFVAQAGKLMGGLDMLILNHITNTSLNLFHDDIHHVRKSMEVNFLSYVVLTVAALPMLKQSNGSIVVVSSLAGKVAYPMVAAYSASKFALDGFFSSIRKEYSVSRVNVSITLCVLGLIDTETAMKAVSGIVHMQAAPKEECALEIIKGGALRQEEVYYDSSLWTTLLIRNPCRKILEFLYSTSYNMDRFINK

`Cc1ccc([N+](=O)[O-])cc1S(=O)(=O)Nc1nc(C(C)C)ns1` [Example 80, N-(3-isopropyl-1,2,4-thiadiazol-5-yl)-2-methyl-5-nitrobenzenesulfonamide]: in assay [1], the Ki was 321 nM.

Consider `CC(C)c1nnc(NS(=O)(=O)c2ccc(Oc3ccccc3)cc2)s1` [Example 244, N-(5-isopropyl-1,3,4-thiadiazol-2-yl)-4-phenoxybenzenesulfonamide], for which, in assay [1], the inhibition constant Ki was 219 nM.

As to `CC1(C)[C@@H](OC(=O)CCC(=O)O)CC[C@]2(C)[C@H]3C(=O)C=C4[C@@H]5C[C@@](C)(C(=O)O)CC[C@]5(C)CC[C@@]4(C)[C@]3(C)CC[C@@H]12` [carbenoxolone], the “reduction of intraocular pressure” value in assay [2] was 20%. The hepatic insulin sensitivity result in assay [3] is reported as “improved”.

Take BVT.2733: the “animals showing complications during treatment period” value in assay [4] (jugular catheter surgery, vehicle 58%) turned out to be 24%. The “effects on wound healing of the surgical wounds” value in assay [4] (compared to control mice) is “less pus in the wound, as well as better wound strength”.
